In patent US20250206727A1, “HETEROCYCLIC SUBSTITUTED AROMATIC COMPOUND, PREPARATION METHOD THEREFOR, HERBICIDAL COMPOSITION AND APPLICATION” (QINGDAO KINGAGROOT CHEMICAL COMPOUND CO., LTD., priority 2022, published 2025):

Tests used:
Experiment in all cases: Post-emergence test on weeds (greenhouse, spray at 2-3 leaf stage)
Assay type in all cases: in vivo
Design in all cases: key: Level 10: completely dead; Level 9: growth control rate greater than or equal to 90% and less than 100%; Level 8: growth control rate greater than or equal to 80% and less than 90%; Level 7: growth control rate greater than or equal to 70% and less than 80%; Level 6: growth control rate greater than or equal to 60% and less than 70%; Level 5: growth control rate greater than or equal to 50% and less than 60%; Level 4: growth control rate greater than or equal to 40% and less than 50%; Level 3: growth control rate greater than or equal to 30% and less than 40%; Level 2: growth control rate greater than or equal to 20% and less than 30%; Level 1: growth control rate less than 20%; Level 0: no effect
Settings in all cases: 3 weeks after application
[1] = system: Digitaria sanguinalis
Method in brief: (§1)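 Greenhouse pot-grown weeds were sprayed by spray tower at the 2-3 leaf stage, about two weeks after sowing, with acetone/Tween 80 solutions plus 1.5 L/ha methyl oleate EC synergist at 500, 250, […], 15 and 7.5 g a.i./ha. Fresh-weight growth control was scored 0-10 after 3 weeks, triplicate averaged.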

[2] = system: Amaranthus retroflexus
Method in brief: as §1

[3] = system: Veronica polita
Method in brief: as §1

[4] = system: Setaria viridis
Method in brief: as §1

[5] = system: Echinochloa crus-galli
Method in brief: as §1

[6] = system: Abutilon theophrasti
Method in brief: as §1

CCOC(=O)C1(C)ON=C(c2cc(-c3ncc(C(F)(F)F)cc3C)c(F)cc2Cl)O1 (stereo not drawn) [Compound 30]
10: activity level (fresh weight growth control rate), Digitaria sanguinalis ([1]; 60 g a.i./ha) | activity level (fresh weight growth control rate), Amaranthus retroflexus ([2]; 60 g a.i./ha) | activity level (fresh weight growth control rate), Veronica polita ([3]; 60 g a.i./ha) | activity level (fresh weight growth control rate), Setaria viridis ([4]; 60 g a.i./ha) | activity level (fresh weight growth control rate), Echinochloa crus-galli ([5]; 60 g a.i./ha) | activity level (fresh weight growth control rate), Abutilon theophrasti ([6]; 60 g a.i./ha)

CCOC(=O)C1(C)ON=C(c2cc(-c3ncc(Cl)cc3F)c(F)cc2Cl)O1 (stereo not drawn) [Compound 31]
10: activity level (fresh weight growth control rate), Digitaria sanguinalis ([1]; 60 g a.i./ha) | activity level (fresh weight growth control rate), Amaranthus retroflexus ([2]; 60 g a.i./ha) | activity level (fresh weight growth control rate), Veronica polita ([3]; 60 g a.i./ha) | activity level (fresh weight growth control rate), Setaria viridis ([4]; 60 g a.i./ha) | activity level (fresh weight growth control rate), Echinochloa crus-galli ([5]; 60 g a.i./ha) | activity level (fresh weight growth control rate), Abutilon theophrasti ([6]; 60 g a.i./ha)

CCOC(=O)C1(C)ON=C(c2cc(-c3ncc(C)cc3F)c(F)cc2Cl)O1 (stereo not drawn) [Compound 32]
10: activity level (fresh weight growth control rate), Digitaria sanguinalis ([1]; 60 g a.i./ha) | activity level (fresh weight growth control rate), Amaranthus retroflexus ([2]; 60 g a.i./ha) | activity level (fresh weight growth control rate), Veronica polita ([3]; 60 g a.i./ha) | activity level (fresh weight growth control rate), Setaria viridis ([4]; 60 g a.i./ha) | activity level (fresh weight growth control rate), Echinochloa crus-galli ([5]; 60 g a.i./ha) | activity level (fresh weight growth control rate), Abutilon theophrasti ([6]; 60 g a.i./ha)

CCOC(=O)C1(C)ON=C(c2cc(-c3ncc(C(F)(F)F)cc3OC)c(F)cc2Cl)O1 (stereo not drawn) [Compound 33]
10: activity level (fresh weight growth control rate), Digitaria sanguinalis ([1]; 60 g a.i./ha) | activity level (fresh weight growth control rate), Amaranthus retroflexus ([2]; 60 g a.i./ha) | activity level (fresh weight growth control rate), Veronica polita ([3]; 60 g a.i./ha) | activity level (fresh weight growth control rate), Setaria viridis ([4]; 60 g a.i./ha) | activity level (fresh weight growth control rate), Echinochloa crus-galli ([5]; 60 g a.i./ha) | activity level (fresh weight growth control rate), Abutilon theophrasti ([6]; 60 g a.i./ha)

CCOC(=O)C1(C)ON=C(c2cc(-c3ncc(C(F)(F)F)cc3F)c(F)cc2Cl)O1 (stereo not drawn) [Compound 34]
10: activity level (fresh weight growth control rate), Digitaria sanguinalis ([1]; 60 g a.i./ha) | activity level (fresh weight growth control rate), Amaranthus retroflexus ([2]; 60 g a.i./ha) | activity level (fresh weight growth control rate), Veronica polita ([3]; 60 g a.i./ha) | activity level (fresh weight growth control rate), Setaria viridis ([4]; 60 g a.i./ha) | activity level (fresh weight growth control rate), Echinochloa crus-galli ([5]; 60 g a.i./ha) | activity level (fresh weight growth control rate), Abutilon theophrasti ([6]; 60 g a.i./ha)

CCOC(=O)C1(C)ON=C(c2cc(-c3ncc(F)cc3Cl)c(F)cc2Cl)O1 (stereo not drawn) [Compound 35]
10: activity level (fresh weight growth control rate), Digitaria sanguinalis ([1]; 60 g a.i./ha) | activity level (fresh weight growth control rate), Amaranthus retroflexus ([2]; 60 g a.i./ha) | activity level (fresh weight growth control rate), Veronica polita ([3]; 60 g a.i./ha) | activity level (fresh weight growth control rate), Setaria viridis ([4]; 60 g a.i./ha) | activity level (fresh weight growth control rate), Echinochloa crus-galli ([5]; 60 g a.i./ha) | activity level (fresh weight growth control rate), Abutilon theophrasti ([6]; 60 g a.i./ha)

CCOC(=O)C1(C)ON=C(c2cc(-c3ncc(C(F)(F)F)cc3Cl)c(F)cc2Cl)O1 (stereo not drawn) [Compound 39]
10: activity level (fresh weight growth control rate), Digitaria sanguinalis ([1]; 15 g a.i./ha) | activity level (fresh weight growth control rate), Amaranthus retroflexus ([2]; 15 g a.i./ha) | activity level (fresh weight growth control rate), Veronica polita ([3]; 15 g a.i./ha) | activity level (fresh weight growth control rate), Setaria viridis ([4]; 15 g a.i./ha) | activity level (fresh weight growth control rate), Echinochloa crus-galli ([5]; 15 g a.i./ha) | activity level (fresh weight growth control rate), Abutilon theophrasti ([6]; 15 g a.i./ha)

CCOC(=O)C1(C)ON=C(c2cc(-c3ncc(Cl)cc3Cl)c(F)cc2Cl)O1 (stereo not drawn) [Compound 40]
10: activity level (fresh weight growth control rate), Digitaria sanguinalis ([1]; 60 g a.i./ha) | activity level (fresh weight growth control rate), Amaranthus retroflexus ([2]; 60 g a.i./ha) | activity level (fresh weight growth control rate), Veronica polita ([3]; 60 g a.i./ha) | activity level (fresh weight growth control rate), Setaria viridis ([4]; 60 g a.i./ha) | activity level (fresh weight growth control rate), Echinochloa crus-galli ([5]; 60 g a.i./ha) | activity level (fresh weight growth control rate), Abutilon theophrasti ([6]; 60 g a.i./ha)

CCOC(=O)C1(C)ON=C(c2cc(-c3ncc(C(F)(F)F)cc3Cl)c(F)cc2C(F)(F)F)O1 (stereo not drawn) [Compound 54]
10: activity level (fresh weight growth control rate), Digitaria sanguinalis ([1]; 60 g a.i./ha) | activity level (fresh weight growth control rate), Amaranthus retroflexus ([2]; 60 g a.i./ha) | activity level (fresh weight growth control rate), Veronica polita ([3]; 60 g a.i./ha) | activity level (fresh weight growth control rate), Setaria viridis ([4]; 60 g a.i./ha) | activity level (fresh weight growth control rate), Echinochloa crus-galli ([5]; 60 g a.i./ha) | activity level (fresh weight growth control rate), Abutilon theophrasti ([6]; 60 g a.i./ha)

CCOC(=O)C1(C)ON=C(c2cc(-c3ncc(C(F)(F)F)cc3Cl)c(F)cc2C#N)O1 (stereo not drawn) [Compound 56]
10: activity level (fresh weight growth control rate), Digitaria sanguinalis ([1]; 60 g a.i./ha) | activity level (fresh weight growth control rate), Amaranthus retroflexus ([2]; 60 g a.i./ha) | activity level (fresh weight growth control rate), Veronica polita ([3]; 60 g a.i./ha) | activity level (fresh weight growth control rate), Setaria viridis ([4]; 60 g a.i./ha) | activity level (fresh weight growth control rate), Echinochloa crus-galli ([5]; 60 g a.i./ha) | activity level (fresh weight growth control rate), Abutilon theophrasti ([6]; 60 g a.i./ha)

CCOC(=O)C1(CC)ON=C(c2cc(-c3ncc(C(F)(F)F)cc3F)c(F)cc2Cl)O1 (stereo not drawn) [Compound 58]
10: activity level (fresh weight growth control rate), Digitaria sanguinalis ([1]; 60 g a.i./ha) | activity level (fresh weight growth control rate), Amaranthus retroflexus ([2]; 60 g a.i./ha) | activity level (fresh weight growth control rate), Veronica polita ([3]; 60 g a.i./ha) | activity level (fresh weight growth control rate), Setaria viridis ([4]; 60 g a.i./ha) | activity level (fresh weight growth control rate), Echinochloa crus-galli ([5]; 60 g a.i./ha) | activity level (fresh weight growth control rate), Abutilon theophrasti ([6]; 60 g a.i./ha)

CCOC(=O)C1(C(F)(F)F)ON=C(c2cc(-c3ncc(C(F)(F)F)cc3Cl)c(F)cc2Cl)O1 (stereo not drawn) [Compound 62]
10: activity level (fresh weight growth control rate), Digitaria sanguinalis ([1]; 60 g a.i./ha) | activity level (fresh weight growth control rate), Amaranthus retroflexus ([2]; 60 g a.i./ha) | activity level (fresh weight growth control rate), Veronica polita ([3]; 60 g a.i./ha) | activity level (fresh weight growth control rate), Setaria viridis ([4]; 60 g a.i./ha) | activity level (fresh weight growth control rate), Echinochloa crus-galli ([5]; 60 g a.i./ha) | activity level (fresh weight growth control rate), Abutilon theophrasti ([6]; 60 g a.i./ha)

CCOC(=O)C1(C2CC2)ON=C(c2cc(-c3ncc(C(F)(F)F)cc3Cl)c(F)cc2Cl)O1 (stereo not drawn) [Compound 79]
10: activity level (fresh weight growth control rate), Digitaria sanguinalis ([1]; 60 g a.i./ha) | activity level (fresh weight growth control rate), Amaranthus retroflexus ([2]; 60 g a.i./ha) | activity level (fresh weight growth control rate), Veronica polita ([3]; 60 g a.i./ha) | activity level (fresh weight growth control rate), Setaria viridis ([4]; 60 g a.i./ha) | activity level (fresh weight growth control rate), Echinochloa crus-galli ([5]; 60 g a.i./ha) | activity level (fresh weight growth control rate), Abutilon theophrasti ([6]; 60 g a.i./ha)

CCSC(=O)C1(C)ON=C(c2cc(-c3ncc(C(F)(F)F)cc3Cl)c(F)cc2Cl)O1 (stereo not drawn) [Compound 85]
10: activity level (fresh weight growth control rate), Digitaria sanguinalis ([1]; 60 g a.i./ha) | activity level (fresh weight growth control rate), Amaranthus retroflexus ([2]; 60 g a.i./ha) | activity level (fresh weight growth control rate), Veronica polita ([3]; 60 g a.i./ha) | activity level (fresh weight growth control rate), Setaria viridis ([4]; 60 g a.i./ha) | activity level (fresh weight growth control rate), Echinochloa crus-galli ([5]; 60 g a.i./ha) | activity level (fresh weight growth control rate), Abutilon theophrasti ([6]; 60 g a.i./ha)

CCCOC(=O)C1(C)ON=C(c2cc(-c3ncc(C(F)(F)F)cc3Cl)c(F)cc2Cl)O1 (stereo not drawn) [Compound 86]
10: activity level (fresh weight growth control rate), Digitaria sanguinalis ([1]; 60 g a.i./ha) | activity level (fresh weight growth control rate), Amaranthus retroflexus ([2]; 60 g a.i./ha) | activity level (fresh weight growth control rate), Veronica polita ([3]; 60 g a.i./ha) | activity level (fresh weight growth control rate), Setaria viridis ([4]; 60 g a.i./ha) | activity level (fresh weight growth control rate), Echinochloa crus-galli ([5]; 60 g a.i./ha) | activity level (fresh weight growth control rate), Abutilon theophrasti ([6]; 60 g a.i./ha)

CCCOC(=O)C1(C)ON=C(c2cc(-c3ncc(Cl)cc3Cl)c(F)cc2Cl)O1 (stereo not drawn) [Compound 87]
10: activity level (fresh weight growth control rate), Digitaria sanguinalis ([1]; 60 g a.i./ha) | activity level (fresh weight growth control rate), Amaranthus retroflexus ([2]; 60 g a.i./ha) | activity level (fresh weight growth control rate), Veronica polita ([3]; 60 g a.i./ha) | activity level (fresh weight growth control rate), Setaria viridis ([4]; 60 g a.i./ha) | activity level (fresh weight growth control rate), Echinochloa crus-galli ([5]; 60 g a.i./ha) | activity level (fresh weight growth control rate), Abutilon theophrasti ([6]; 60 g a.i./ha)
